Test results published in article PMC7156458, “Synthetic biology based construction of biological activity-related library of fungal decalin-containing diterpenoid pyrones” (Nature Communications, 2020).

Biological target: Aβ42 (Homo sapiens, UniProt P05067)
Assay: Th-T (thioflavin-T) assay of Aβ42 aggregation
Assay type: biochemical
Conditions: for Th-T fluorescence of Aβ42 (sheet Fig. 7a), mean of three wells: head suffix _50 (concentration 50); for Th-T assay plate reading, mean of three wells (Supplementary Fig. 47): source data, Ab alone and No Ab as controls; for Th-T fluorescence, mean of three wells: Supplementary Fig. 47 source data

Aβ42, sequence (P05067 672-713): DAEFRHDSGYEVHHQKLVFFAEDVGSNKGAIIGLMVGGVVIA

## C=C1CC[C@@H]2[C@](C)(CC[C@H]3O[C@H](C=C(C)C)C[C@@]23C)[C@@H]1Cc1c(OC)oc(CO)c(C(=O)OC)c1=O [Compound 21]
Reading M73
  Th-T fluorescence of Aβ42 (sheet Fig. 7a), mean of three wells: 0.2746
Reading M74
  Th-T fluorescence of Aβ42 (sheet Fig. 7a), mean of three wells: 0.2806
Reading M75
  Th-T fluorescence of Aβ42 (sheet Fig. 7a), mean of three wells: 0.286
Reading M76
  Th-T fluorescence of Aβ42 (sheet Fig. 7a), mean of three wells: 0.2937
Reading M77
  Th-T fluorescence of Aβ42 (sheet Fig. 7a), mean of three wells: 0.3019
Reading M78
  Th-T fluorescence of Aβ42 (sheet Fig. 7a), mean of three wells: 0.3119
Reading M79
  Th-T fluorescence of Aβ42 (sheet Fig. 7a), mean of three wells: 0.3191
Reading M80
  Th-T fluorescence of Aβ42 (sheet Fig. 7a), mean of three wells: 0.3266
Reading M81
  Th-T fluorescence of Aβ42 (sheet Fig. 7a), mean of three wells: 0.339
Reading M82
  Th-T fluorescence of Aβ42 (sheet Fig. 7a), mean of three wells: 0.3487
Reading M83
  Th-T fluorescence of Aβ42 (sheet Fig. 7a), mean of three wells: 0.3612
Reading M84
  Th-T fluorescence of Aβ42 (sheet Fig. 7a), mean of three wells: 0.3714
Measurement M1
  Th-T assay plate reading, mean of three wells (Supplementary Fig. 47): 0.221
Measurement M2
  Th-T assay plate reading, mean of three wells (Supplementary Fig. 47): 0.2228
Measurement M3
  Th-T assay plate reading, mean of three wells (Supplementary Fig. 47): 0.2221
Measurement M4
  Th-T assay plate reading, mean of three wells (Supplementary Fig. 47): 0.222
Measurement M5
  Th-T assay plate reading, mean of three wells (Supplementary Fig. 47): 0.2108
Measurement M6
  Th-T assay plate reading, mean of three wells (Supplementary Fig. 47): 0.2062
Measurement M7
  Th-T assay plate reading, mean of three wells (Supplementary Fig. 47): 0.1997
Measurement M8
  Th-T assay plate reading, mean of three wells (Supplementary Fig. 47): 0.1959
Measurement M9
  Th-T assay plate reading, mean of three wells (Supplementary Fig. 47): 0.193
Measurement M10
  Th-T assay plate reading, mean of three wells (Supplementary Fig. 47): 0.1931
Measurement M11
  Th-T assay plate reading, mean of three wells (Supplementary Fig. 47): 0.1918
Measurement M12
  Th-T assay plate reading, mean of three wells (Supplementary Fig. 47): 0.1925
Measurement M13
  Th-T assay plate reading, mean of three wells (Supplementary Fig. 47): 0.1929
Measurement M14
  Th-T assay plate reading, mean of three wells (Supplementary Fig. 47): 0.1925
Measurement M15
  Th-T assay plate reading, mean of three wells (Supplementary Fig. 47): 0.1938
Measurement M16
  Th-T assay plate reading, mean of three wells (Supplementary Fig. 47): 0.1946
Reading M107, compound at 10 (head suffix _10)
  Th-T fluorescence, mean of three wells (Fig. 7a): 1.6819
Reading M107, compound at 20 (head suffix _20)
  Th-T fluorescence, mean of three wells (Fig. 7a): 0.9322
Reading M107, compound at 50 (head suffix _50)
  Th-T fluorescence, mean of three wells (Fig. 7a): 0.4795
Reading M108, compound at 10 (head suffix _10)
  Th-T fluorescence, mean of three wells (Fig. 7a): 1.643
Reading M108, compound at 20 (head suffix _20)
  Th-T fluorescence, mean of three wells (Fig. 7a): 0.9316
Reading M108, compound at 50 (head suffix _50)
  Th-T fluorescence, mean of three wells (Fig. 7a): 0.4805
Reading M109, compound at 10 (head suffix _10)
  Th-T fluorescence, mean of three wells (Fig. 7a): 1.641
Reading M109, compound at 20 (head suffix _20)
  Th-T fluorescence, mean of three wells (Fig. 7a): 0.9416
Reading M109, compound at 50 (head suffix _50)
  Th-T fluorescence, mean of three wells (Fig. 7a): 0.4841
Reading M110, compound at 10 (head suffix _10)
  Th-T fluorescence, mean of three wells (Fig. 7a): 1.6563
Reading M110, compound at 20 (head suffix _20)
  Th-T fluorescence, mean of three wells (Fig. 7a): 0.9358
Reading M110, compound at 50 (head suffix _50)
  Th-T fluorescence, mean of three wells (Fig. 7a): 0.4823
Reading M111, compound at 10 (head suffix _10)
  Th-T fluorescence, mean of three wells (Fig. 7a): 1.67
Reading M111, compound at 20 (head suffix _20)
  Th-T fluorescence, mean of three wells (Fig. 7a): 0.9311
Reading M111, compound at 50 (head suffix _50)
  Th-T fluorescence, mean of three wells (Fig. 7a): 0.4866
Reading M112, compound at 10 (head suffix _10)
  Th-T fluorescence, mean of three wells (Fig. 7a): 1.658
Reading M112, compound at 20 (head suffix _20)
  Th-T fluorescence, mean of three wells (Fig. 7a): 0.9334
Reading M112, compound at 50 (head suffix _50)
  Th-T fluorescence, mean of three wells (Fig. 7a): 0.4858
Reading M113, compound at 10 (head suffix _10)
  Th-T fluorescence, mean of three wells (Fig. 7a): 1.671
Reading M113, compound at 20 (head suffix _20)
  Th-T fluorescence, mean of three wells (Fig. 7a): 0.9626
Reading M113, compound at 50 (head suffix _50)
  Th-T fluorescence, mean of three wells (Fig. 7a): 0.4847
Reading M114, compound at 10 (head suffix _10)
  Th-T fluorescence, mean of three wells (Fig. 7a): 1.656
Reading M114, compound at 20 (head suffix _20)
  Th-T fluorescence, mean of three wells (Fig. 7a): 0.941
Reading M114, compound at 50 (head suffix _50)
  Th-T fluorescence, mean of three wells (Fig. 7a): 0.488
Reading M115, compound at 10 (head suffix _10)
  Th-T fluorescence, mean of three wells (Fig. 7a): 1.673
Reading M115, compound at 20 (head suffix _20)
  Th-T fluorescence, mean of three wells (Fig. 7a): 0.9605
Reading M115, compound at 50 (head suffix _50)
  Th-T fluorescence, mean of three wells (Fig. 7a): 0.4915
Reading M116, compound at 10 (head suffix _10)
  Th-T fluorescence, mean of three wells (Fig. 7a): 1.71
Reading M116, compound at 20 (head suffix _20)
  Th-T fluorescence, mean of three wells (Fig. 7a): 0.9595
Reading M116, compound at 50 (head suffix _50)
  Th-T fluorescence, mean of three wells (Fig. 7a): 0.4913
Reading M117, compound at 10 (head suffix _10)
  Th-T fluorescence, mean of three wells (Fig. 7a): 1.657
Reading M117, compound at 20 (head suffix _20)
  Th-T fluorescence, mean of three wells (Fig. 7a): 0.9521
Reading M117, compound at 50 (head suffix _50)
  Th-T fluorescence, mean of three wells (Fig. 7a): 0.4909
Reading M118, compound at 10 (head suffix _10)
  Th-T fluorescence, mean of three wells (Fig. 7a): 1.7
Reading M118, compound at 20 (head suffix _20)
  Th-T fluorescence, mean of three wells (Fig. 7a): 0.9478
Reading M118, compound at 50 (head suffix _50)
  Th-T fluorescence, mean of three wells (Fig. 7a): 0.4918
Reading M119, compound at 10 (head suffix _10)
  Th-T fluorescence, mean of three wells (Fig. 7a): 1.686
Reading M119, compound at 20 (head suffix _20)
  Th-T fluorescence, mean of three wells (Fig. 7a): 0.9445
Reading M119, compound at 50 (head suffix _50)
  Th-T fluorescence, mean of three wells (Fig. 7a): 0.4929
Reading M120, compound at 10 (head suffix _10)
  Th-T fluorescence, mean of three wells (Fig. 7a): 1.675
Reading M120, compound at 20 (head suffix _20)
  Th-T fluorescence, mean of three wells (Fig. 7a): 0.9469
Reading M120, compound at 50 (head suffix _50)
  Th-T fluorescence, mean of three wells (Fig. 7a): 0.4937
Reading M121, compound at 10 (head suffix _10)
  Th-T fluorescence, mean of three wells (Fig. 7a): 1.7005
Reading M121, compound at 20 (head suffix _20)
  Th-T fluorescence, mean of three wells (Fig. 7a): 0.9507
Reading M121, compound at 50 (head suffix _50)
  Th-T fluorescence, mean of three wells (Fig. 7a): 0.4951
Reading M122, compound at 10 (head suffix _10)
  Th-T fluorescence, mean of three wells (Fig. 7a): 1.701
Reading M122, compound at 20 (head suffix _20)
  Th-T fluorescence, mean of three wells (Fig. 7a): 0.9556
Reading M122, compound at 50 (head suffix _50)
  Th-T fluorescence, mean of three wells (Fig. 7a): 0.493
Reading M123, compound at 10 (head suffix _10)
  Th-T fluorescence, mean of three wells (Fig. 7a): 1.651
Reading M123, compound at 20 (head suffix _20)
  Th-T fluorescence, mean of three wells (Fig. 7a): 0.9514
Reading M123, compound at 50 (head suffix _50)
  Th-T fluorescence, mean of three wells (Fig. 7a): 0.4951
Reading M124, compound at 10 (head suffix _10)
  Th-T fluorescence, mean of three wells (Fig. 7a): 1.705
Reading M124, compound at 20 (head suffix _20)
  Th-T fluorescence, mean of three wells (Fig. 7a): 0.9577
Reading M124, compound at 50 (head suffix _50)
  Th-T fluorescence, mean of three wells (Fig. 7a): 0.4977
Reading M125, compound at 10 (head suffix _10)
  Th-T fluorescence, mean of three wells (Fig. 7a): 1.692
Reading M125, compound at 20 (head suffix _20)
  Th-T fluorescence, mean of three wells (Fig. 7a): 0.9599
Reading M125, compound at 50 (head suffix _50)
  Th-T fluorescence, mean of three wells (Fig. 7a): 0.4931
Reading M126, compound at 10 (head suffix _10)
  Th-T fluorescence, mean of three wells (Fig. 7a): 1.704
Reading M126, compound at 20 (head suffix _20)
  Th-T fluorescence, mean of three wells (Fig. 7a): 0.9491
Reading M126, compound at 50 (head suffix _50)
  Th-T fluorescence, mean of three wells (Fig. 7a): 0.4978
Reading M127, compound at 10 (head suffix _10)
  Th-T fluorescence, mean of three wells (Fig. 7a): 1.72
Reading M127, compound at 20 (head suffix _20)
  Th-T fluorescence, mean of three wells (Fig. 7a): 0.9533
Reading M127, compound at 50 (head suffix _50)
  Th-T fluorescence, mean of three wells (Fig. 7a): 0.4965
Reading M128, compound at 10 (head suffix _10)
  Th-T fluorescence, mean of three wells (Fig. 7a): 1.676
Reading M128, compound at 20 (head suffix _20)
  Th-T fluorescence, mean of three wells (Fig. 7a): 0.9486
Reading M128, compound at 50 (head suffix _50)
  Th-T fluorescence, mean of three wells (Fig. 7a): 0.4971
time-course reading M97
  Th-T fluorescence, mean of three wells: 1.027
time-course reading M98
  Th-T fluorescence, mean of three wells: 1.0353
time-course reading M99
  Th-T fluorescence, mean of three wells: 1.027
time-course reading M100
  Th-T fluorescence, mean of three wells: 1.023
time-course reading M101
  Th-T fluorescence, mean of three wells: 1.038
time-course reading M102
  Th-T fluorescence, mean of three wells: 1.048
time-course reading M103
  Th-T fluorescence, mean of three wells: 1.038
time-course reading M104
  Th-T fluorescence, mean of three wells: 1.045
time-course reading M105
  Th-T fluorescence, mean of three wells: 1.028
time-course reading M106
  Th-T fluorescence, mean of three wells: 1.044
time-course reading M107
  Th-T fluorescence, mean of three wells: 1.045
time-course reading M108
  Th-T fluorescence, mean of three wells: 1.036
time-course reading M109
  Th-T fluorescence, mean of three wells: 1.034
time-course reading M110
  Th-T fluorescence, mean of three wells: 1.043
time-course reading M111
  Th-T fluorescence, mean of three wells: 1.041
time-course reading M112
  Th-T fluorescence, mean of three wells: 1.036
time-course reading M113
  Th-T fluorescence, mean of three wells: 1.022
time-course reading M114
  Th-T fluorescence, mean of three wells: 1.039
time-course reading M115
  Th-T fluorescence, mean of three wells: 1.052
time-course reading M116
  Th-T fluorescence, mean of three wells: 1.042
